How the values were obtained:
P388/0 = test: In vitro cytotoxicity assay (Alamar Blue), P388/0 cells; format: cell-based; conditions: 3 days incubation
Description: Cell Lines and Cytotoxicity Assays. Studies using P388/0 cell lines for IC50 (drug concentration inhibiting growth of cells by 50%) were maintained and conducted using standard procedures. Briefly, for IC50 determination, cells were seeded into the microwell plates at a density of 2×10^3 cells per 50 μL per well. Plates were incubated at 37° C. in a humidified incubator with 5% CO2 for 3 days. Cell growth was measured by the addition of 10 μL/well of Alamar Blue (Alamar Biosciences, Inc., Sacramento, Calif.) and the plates were incubated a further 4 hours at 37° C. The IC50 values for each compound were determined from absorbance versus dilution factor plots. All cell cultures for animal implantation were maintained at 37° C. in a humidified atmosphere of 5% CO2/[…] and subcultured once a week. All cell lines were periodically tested for Mycoplasma and were Mycoplasma free.

[1] = system: subcutaneous human non-small cell lung carcinoma (LX-1); test: In vivo efficacy against subcutaneous LX-1 tumor xenograft in nude mice; conditions: for Effectiveness in LX-1 solid tumor model (in words): Ara-C 100 mg/kg/dose, PEG-ara-C 20 mg/kg/dose (one fifth of native dose), i.v. x4; for Mean Vol. ± SEM at Day 24 / % Change ± SEM at Day 24 (mean percent change in individual tumor volumes from initial): LX-1 s.c. in nude mice, PEG-Ara-C 80 mg/kg; for Mean Vol. ± SEM at Day 24: i.v. x4 doses (day 1, 4, 7, 10), baseline 300 mm^3; for Mean Vol. ± SEM at Day 24 / % Change ± SEM at Day 24 (mean percent change in individual tumor volumes from initial) / T/C (%) at Day 7 / T/C (%) at Day 24 / Regression at Day 24 (#/Grp) / Complete Regression (#/Grp): total dose Ara-C 400 mg/kg; for % Change ± SEM at Day 24 (mean percent change in individual tumor volumes from initial): i.v. x4 doses; for T/C (%) at Day 7: median tumor volume treated vs control when control median approx. 1000 mm^3 (day 7); for T/C (%) at Day 7 / T/C (%) at Day 24 / Regression at Day 24 (#/Grp) / Complete Regression (#/Grp): PEG-Ara-C 80 mg/kg i.v.; for T/C (%) at Day 24: median tumor volume treated vs control when control median approx. 2400 mm^3 (day 24); for Regression at Day 24 (#/Grp): smaller tumor volume on day 24 compared to day 1
Description: Athymic nude mice were implanted subcutaneous with a 4-5 mm^3 tissue fragment of LX-1 collected from donor mice. The tumor trocar site was observed twice weekly and measured once palpable. […] The mice were sorted to evenly distribute tumor size, grouped into 6 to 7 mice per group, and ear punched for permanent identification. Drugs were administered intravenously every 3 days×4 doses (day 1, 4, 7 and 10) via the tail vein at an approximate rate of 0.5 mL per minute. […] Therefore, this study compares the PEG-conjugate at one fifth the native dose, and presumably much less than its MTD. Mouse weight and tumor size were measured at the beginning of study and twice weekly through week 4. Drug effectiveness were determined by comparing tumor growth in treated versus untreated (no vehicle) control mice. Five types of endpoints were used as the basis for comparison: (a) mean tumor volumes at day 24; (b) mean percent change in individual tumor volumes from initial; (c) percent difference in tumor volume (%T/C), measured when the control group's median tumor volume reached approximately 800-1100 mm^3 (exponential growth phase); (d) percent difference in tumor volume (%T/C) at day 24 and (e) the number of tumor regression (smaller tumor volume on day 24 compared to day 1) per group.

Compound	IC50 (P388/0; Mus musculus, 72 h)	Effectiveness in LX-1 solid tumor model (in words) [1]	Mean Vol. ± SEM at Day 24 [1]	% Change ± SEM at Day 24 (mean percent change in individual tumor volumes from initial) [1]	T/C (%) at Day 7 [1]	T/C (%) at Day 24 [1]	Regression at Day 24 (#/Grp) [1]	Complete Regression (#/Grp) [1]	IC50 (P388/0)
Nc1ccn([C@@H]2O[C@H](CO)[C@@H](O)[C@@H]2O)c(=O)n1 [Ara-C, 1-(β-D-arabinofuranosyl)cytosine]	10 nM	ineffective	3192.5 mm^3	1514.8%	112.2%	144.6%	0/7	0/7	
Nc1ccn([C@@H]2O[C@H](CO)[C@@H](O)C2(F)F)c(=O)n1 [Gemcitabine, gemcitabine]	2 nM								
PEG-amide-Ara-C [PEG-Ara-C]		significant tumor growth inhibition	2205.0 mm^3	557.4%	76.4%	73.0%	1/6	1/6	12 nM
PEG-amide-Gemcitabine [PEG-Gemcitabine]									46 nM
